In the OligoGym collection:
After the bases stand the sugars from the 5' end (letter, count) and the backbone: PS all phosphorothioate, else s phosphorothioate and o phosphodiester by linkage. Methylation of C is not given here. e = 2'-O-(2-methoxyethyl) (MOE); k = constrained ethyl (cEt); d = 2'-deoxy (DNA); m = 2'-O-methyl

Target: HSD17B13
Settings: ASO, HepaRG

| Sequence | target mRNA inhibition (1 µM) | other results |
| --- | --- | --- |
| ATCTGTCTCCAATACA (sugars k3 d10 k3, PS) | 55% | – |
| AGTAATAAAGTCCAGA (sugars k3 d10 k3, PS) | 43% | – |
| TTGTACCCTGTTCTCA (sugars k3 d10 k3, PS) | 64% | – |
| TTGAATAGCAAGCCAA (sugars k3 d9 k3 e1, PS) | 33% | – |
| CGTTTTGGGCTAATGA (sugars k3 d10 k3, PS) | 48% | – |
| GCTGTAAGAGTCAGTA (sugars k3 d10 k3, PS) | 89% | target mRNA inhibition (0.02 µM): 5%; target mRNA inhibition (0.078 µM): 0%; target mRNA inhibition (0.313 µM): 2%; target mRNA inhibition (1.25 µM): 57%; target mRNA inhibition (5 µM): 82% |
| ACTGACAACCCTTAAC (sugars k3 d10 k3, PS) | 10% | – |
| CTCTTAGCTGTGCACT (sugars kkdddddddddkekek, PS) | 56% | – |
| GGGAGTCGGATTATTT (sugars k3 d10 k3, PS) | 33% | – |
| CGGTCACCTTTCATAA (sugars k3 d10 k3, PS) | 69% | – |
| TTTTTAAGAGGCATGA (sugars k3 d10 k3, PS) | 60% | – |
| TTATGTAATAGCCAGT (sugars k3 d1 m1 d8 k3, PS) | 56% | – |
| CTCTTTTTATAGACTG (sugars k3 d10 k3, PS) | 63% | – |
| GAACCCAGTATTCACA (sugars k3 d10 k3, PS) | 0% | – |
| AGTCTTAAACCTTCCC (sugars k3 d10 k3, PS) | 77% | target mRNA inhibition (0.02 µM): 0%; target mRNA inhibition (0.078 µM): 0%; target mRNA inhibition (0.313 µM): 21%; target mRNA inhibition (1.25 µM): 65%; target mRNA inhibition (5 µM): 85% |
| ATAAACATAGGCTTAG (sugars k3 d10 k3, PS) | 41% | – |
| GTATGGTAAGCCCCAT (sugars k3 d10 k3, PS) | 36% | – |
| CACTGATTTAGTTGGT (sugars k3 d10 k3, PS) | 66% | – |
| GGTGGTAACGGTGATC (sugars k3 d1 m1 d8 k3, PS) | 35% | – |
| ATCTAACTAACCTGAC (sugars k3 d10 k3, PS) | 0% | – |
| GAACAATCTCCCCAGC (sugars k3 d10 k3, PS) | 63% | – |
| ATAACTACAAGAGGTT (sugars k3 d1 m1 d8 k3, PS) | 61% | – |
| AAGATTAGTTAACCTT (sugars k3 d10 k3, PS) | 24% | – |

| Sequence | target mRNA inhibition (1 µM) | other results |
| --- | --- | --- |
| ATTATGAGGATCTGGA (sugars k3 d10 k3, PS) | 49% | – |
| ATTATATGAGGTCTGT (sugars k3 d10 k3, PS) | 59% | – |
| CAATTTATCATACCAC (sugars k3 d10 k3, PS) | 37% | – |
| CTAAAATTGTCTAAAC (sugars kkdddddddddkekek, PS) | 19% | – |
| GCAGUTATTAGAAGTC (sugars k3 d1 m1 d8 k3, PS) | 59% | – |
| GTAATAGCCAGTACAG (sugars k3 d10 k3, PS) | 77% | target mRNA inhibition (0.02 µM): 0%; target mRNA inhibition (0.078 µM): 9%; target mRNA inhibition (0.313 µM): 45%; target mRNA inhibition (1.25 µM): 69%; target mRNA inhibition (5 µM): 84% |
| GAGTATTTCCTCTGGG (sugars k3 d10 k3, PS) | 23% | – |
| CTACCACATACGCATG (sugars k3 d10 k3, PS) | 25% | – |
| ACATATACAGACTAAG (sugars k3 d10 k3, PS) | 46% | – |
| TAGGATTAATTCCCTT (sugars k3 d10 k3, PS) | 0% | – |
| AATAGAGTCGGTCACC (sugars kkdddddddddkekek, PS) | 13% | – |
| TGGCATGGCTACAGAT (sugars kkdddddddddkekek, PS) | 58% | – |
| ACCAATGCAGTTTGTA (sugars k3 d10 k3, PS) | 75% | target mRNA inhibition (0.02 µM): 6%; target mRNA inhibition (0.078 µM): 0%; target mRNA inhibition (0.313 µM): 32%; target mRNA inhibition (1.25 µM): 80%; target mRNA inhibition (5 µM): 90% |
| GATGTAGTGGGAGTCG (sugars k3 d10 k3, PS) | 67% | – |
| TAGTCCTAGGGAGGAG (sugars k3 d10 k3, PS) | 68% | – |
| AAGGATTTCTAGGATG (sugars k3 d10 k3, PS) | 71% | – |
| TTCATAAGTAGTCTGC (sugars k3 d10 k3, PS) | 64% | – |
| CTCAGGCTGTAAGAGT (sugars k3 d1 m1 d8 k3, PS) | 46% | – |
| ATGTATCTTATAAGAC (sugars k3 d1 m1 d8 k3, PS) | 3% | – |
| TTATGATAATTTGGTG (sugars k3 d10 k3, PS) | 0% | – |
| GATCTAAAACTGAAGG (sugars k3 d10 k3, PS) | 44% | – |
| TCTTAAGATACCCAGG (sugars k3 d10 k3, PS) | 58% | – |
